Measured values reported in US20230310467A1 (priority 2022, published 2023).

Assay: Stability by UV spectroscopy after storage under normal conditions and stress tests
Type: physicochemical
Settings: stress / rapid test conditions

CCC(CC)COC(=O)[C@H](C)N[P@](=O)(OC[C@H]1O[C@@](C#N)(c2ccc3c(N)ncnn23)[C@H](O)[C@@H]1O)Oc1ccccc1 [RDV, remdesivir]
stability of the solution according to UV spectroscopic data: limitedly stable
